Test results from publication PMC10025090 (iScience, 2023).

Key:
[1] = biological target: T1, H2-Kd (Mus musculus, UniProt P01902); assay: In vitro pMHC binding assay; details: refolding with 10 μM peptide, 4°C, 72 hours; ELISA; result in words
[2] = biological target: T1, H2-Kd; details: result in words; cited from earlier work

- In vitro binding affinity to H2-Kd [1]: significantly high
Sequence: YIRPFETKVK
- In silico-predicted MHC binding [2]: poor in silico-predicted MHC binder
